# Reference: patent US5821353A, “DNA encoding 1,3 beta-D glucan synthase subunits” (Merck & Co., Inc., priority 1996, dated 1998)
# Assays:
# Pneumocystis carinii = details: rat model of P. carinii pneumonia; Schmatz et al. 1990; cited from earlier work
# S. cerevisiae W303-1A = test: secondary screen, zone size on agar; format: cell-based, Saccharomyces cerevisiae; details: 20 ng FK506, 10 mcg CsA, 10 mcg L733,560, 20 mcg aculeacin, 20 mcg papulacandin
# Method: (§1) For positively identifying glucan synthase inhibitors, screening with strain R560-1C and its parent W303-1A was instituted in a manner identical to that described for calcineurin inhibitors. Complete loss of a zone, or marked reduction in size, on R560-1C versus W303-1A indicates a glucan synthase inhibitor. No zones are seen with calcineurin inhibitors using this pair of strains.
# (§2) Each strain is grown at 28°-30° C. in YPAD/10 mM CaCl2 medium with shaking at 220 rpm (to mid or late log phase). The cultures are diluted 1:10 with water, and the OD values of the dilutions are measured at 600 nm (against a blank of YPAD/10 mM CaCl2 similarly diluted 1:10 in water). The OD value is multiplied by 10 to estimate the OD of the culture. Portions (100 ml) of YPAD/10 mM CaCl2 medium containing 1.5% agar, equilibrated at 45° C. in a water bath, are seeded with culture such that the final cell density in the agar would have an OD value of 0.015 (i.e., 3×10^6 cfu/ml; a sample calculation is provided below). The seeded agar is poured into 500 cm^2 Nunc plates. Once the agar plates have solidified, 10 mcL aliquots of samples containing test compounds, such as fermentation extracts, are dissolved in water, 100% methanol or ethanol, or up to 50% DMSO and are placed on each member of the two-plate set in 11 by 8 arrays.
# (§3) The plates are incubated for 48 h at 28°-30° C. Diameters of the zones are read to the outermost edge and recorded in mm. The clarity of the zone is reported as clear (no designation), hazy (h), or very hazy (vh). Very hazy zones are best seen by viewing the plate under an elevated light placed between the assay dish and a dark wall.
# S. cerevisiae R560-1C = test: secondary screen, zone size on agar; format: cell-based, Saccharomyces cerevisiae; details: 20 ng FK506, 10 mcg CsA, 10 mcg L733,560, 20 mcg aculeacin, 20 mcg papulacandin
# Method: as §1, §2, §3
# [1] = test system: 1,3-beta-D glucan synthase from MY2144 (fks 1-3); test: 1,3-beta-D glucan synthase assay, membrane preparation; format: biochemical, Saccharomyces cerevisiae; details: membranes of MY2144 (fks 1-3)
# Method: (§4) Cell free extracts were prepared from mutant and wild type cells grown to logarithmic phase as previously described (Kang and Cabib, PNAS, 83:5808-5812, 1986). After homogenization with glass beads, the unbroken cells and debris were removed by a low speed centrifugation (1,000×gfor 5 min). The supernatant fluids were centrifuged at 100,000×g for 60 min and the pellets were washed with 2.5 ml (per gram of wet cells) of buffer containing 0.05M potassium phosphate (pH 7.5), 0.5 mM DTT, and 1.0 mM PMSF. The washed pellet was resuspended in the same buffer containing 5% glycerol. This served as the microsomal membranes source containing both chitin and glucan synthase enzymatic activities. The standard 1,3-beta-D glucan synthase reaction was initiated by mixing 35 mcg protein in cocktail I, which included TEK buffer (125 mM Tris chloride, pH 7.5, 31 mM KF, and 1 mM EDTA), 25% PBS, pH 7.0, 3.31 mcM GTP-gamma-S, and 0.25% BSA in a total volume of 69 mcL, with cocktail II, which included 4 units alpha-amylase, 25 mcg UDP-glucose, and 1 microCi UDP-^3 H-glucose, in a total volume of 11 mcL. Following 150 minutes of incubation at 30° C., the incorporation of UDP-^[…] into glucan was measured after precipitation with trichloroacetic acid.
# (§5) Crude enzyme preparations associated with cell membranes were tested for glucan and chitin synthesis activities. […]
# [2] = test system: 1,3-beta-D glucan synthase from MY2145 (fks 1-4); test: as above; format: biochemical, Saccharomyces cerevisiae; details: membranes of MY2145 (fks 1-4)
# Method: as §4, §5
# S. cerevisiae X2180-1A = test: MIC, growth inhibition; format: cell-based, Saccharomyces cerevisiae; details: minimum concentration required to inhibit growth
# Method: (§6) Liquid broth microdilution assay
# (§7) To quantitate the sensitivity of a particular strain of S. cerevisiae to a compound such as FK506, L-733,560, or nikkomycin Z, the following procedure was followed:
# (§8) Dissolve drug of interest at 4× the desired initial concentration. For L-733,560, a 64 mcg/ml solution in sterile SD is prepared. Aliquot 75 mcL of the drug suspension into column 3. Using a multichannel pipettor, transfer 75 mcL from column 3 into column 4, pipet up and down three times to mix, and then transfer 75 mcL from column 4 into column 5. Repeat the serial dilution until column 12 is reached; after mixing, discard 75 mcL to waste.
# (§9) Inoculate each strain in a given row by adding 75 mcL of the inoculum into columns 2 to 12. […] Column 2 serves as the no-drug or 100% growth control. The plate is then incubated overnight at 30° C. without shaking.
# (§10) After approximately 24 hours of incubation, gently agitate the plate to resuspend the cells and read the absorbance at 600 nm wavelength. The % control growth for any given well can be calculated by dividing the absorbance value for that well by the value from column 2 in the same row. If this is done for each column, the data can be plotted as "Percent control growth" vs. "Drug concentration". The resulting dose-response curve can be used to compare the drug sensitivities of various strains.
# (§11) The data in the following table are the minimum concentration of the various drugs required to inhibit the growth of each the mutants and their parent X2180-1A.
# [3] = test system: S. cerevisiae MY2144 (fks 1-3); test: MIC, growth inhibition; format: cell-based, Saccharomyces cerevisiae; details: MY2144 (fks 1-3)
# Method: as §6, §7, §8, §9, §10, §11
# S. cerevisiae MY2145 = test: MIC, growth inhibition; format: cell-based, Saccharomyces cerevisiae; details: MY2145
# Method: as §6, §7, §8, §9, §10, §11
# [4] = test system: S. cerevisiae YFK007 (wild type); test: primary screen, zone size on agar; format: cell-based, Saccharomyces cerevisiae; details: 20 ng FK506, 10 mcg CsA, 10 mcg L733,560, 20 mcg aculeacin, 20 mcg papulacandin, 48 h
# Method: as §2, §3
# [5] = test system: S. cerevisiae YFK532-7C (fks1-1); test: primary screen, zone size on agar; format: cell-based, Saccharomyces cerevisiae; details: 20 ng FK506, 10 mcg CsA, 10 mcg L733,560, 20 mcg aculeacin, 20 mcg papulacandin, 48 h
# Method: as §2, §3
substance,measurement,setting,value
"dihydropapulacandin [L-687,781]",reducing the number of cysts in the lungs of infected rats,Pneumocystis carinii,effective
same,Secondary Screen Zone size (mm),S. cerevisiae W303-1A,15-18 mm
same,Secondary Screen Zone size (mm),S. cerevisiae R560-1C,14-16 mm
same,IC50,[1],11.1 µg/mL
same,IC50,[2],11.5 µg/mL
same,MIC,S. cerevisiae X2180-1A,5.5 µg/mL
same,MIC,[3],15 µg/mL
same,MIC,S. cerevisiae MY2145,5.5 µg/mL
same,Primary Screen Zone size (mm),[4],20-22 mm
same,Primary Screen Zone size (mm),[5],26-28 mm
